Assay results reported in article PMC9271048, “Probing strigolactone perception mechanisms with rationally designed small-molecule agonists stimulating germination of root parasitic weeds” (Nature Communications, 2022).
Read-outs that look alike come from different tables or passages of the source.

Tests used:
ShHTL7 [1] = biological target: T1, ShHTL7 (Striga hermonthica, UniProt A0A0M3PNA2); assay: biochemical; format: binding; conditions: Supplementary Table 7; binding affinities between ShHTL7 and agonists by SPR; read-out: KD/μM
Outline: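 Surface plasmon resonance was run at 25 °C on ShHTL7 immobilized by amine coupling, using phosphate-buffered saline with 0.05% P20 and 0.5% DMSO. Each injection had 1 min association and 1 min dissociation, with a 50 μM screen followed by concentration series. KD was derived by kinetic analysis or steady-state affinity.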

[2] = Chemical reactivity analysis (HPLC, methanol/PBS pH 7.4); format: physicochemical; conditions: methanol/phosphate-buffered saline mixture; Supplementary Fig. 10 source data; methanol/PBS pH 7.4, 26 °C; read-out: half-life time (t1/2), source data average (converted)
Outline: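 Samples were diluted into 10 mM PBS pH 7.4 with methanol and kept at 26 ± 1 °C. The remaining compound was followed by C18 HPLC (CH3CN/H2O 50:50 with 0.1% HCO2H, 1 mL/min). Half-lives were derived from the percentage remaining, calculated from peak areas.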

ShHTL7 [3] = biological target: T1, ShHTL7; assay: Competitive inhibition of ShHTL7 with Yoshimulactone Green (YLG) as substrate; format: biochemical
Outline: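 YLG hydrolysis by ShHTL7 followed by fluorescence (ex 480/em 520 nm) every 1 min for 30 min; compounds and YLG from fresh DMSO stocks. After subtracting no-enzyme background, the linear 8-min increase was used; IC50 fitted from relative inhibition versus compound concentration.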

[4] = test system: PaKAI2s (5 KAI2 protein homologs in P. aegyptiaca); assay: YLG-based competition assay on KAI2 protein homologs of P. aegyptiaca; format: biochemical, Phelipanche aegyptiaca; conditions: Supplementary Fig. 27
Outline: (§1)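 Competition with fluorogenic substrate YLG ([…]) for hydrolysis by each HTL or KAI2 protein; fluorescence (Ex 480/Em 520 nm) recorded every 1 min for 30 min. Linear 8-min increase, background hydrolysis subtracted, used; IC50 from fitted relative inhibition versus concentration.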

[5] = test system: ShHTLs (10 HTL proteins in S. hermonthica); assay: YLG-based competition assay on HTL proteins of S. hermonthica; format: biochemical, Striga hermonthica; conditions: Supplementary Fig. 27
Outline: as §1

T1 sequence (A0A0M3PNA2 entry or part of it): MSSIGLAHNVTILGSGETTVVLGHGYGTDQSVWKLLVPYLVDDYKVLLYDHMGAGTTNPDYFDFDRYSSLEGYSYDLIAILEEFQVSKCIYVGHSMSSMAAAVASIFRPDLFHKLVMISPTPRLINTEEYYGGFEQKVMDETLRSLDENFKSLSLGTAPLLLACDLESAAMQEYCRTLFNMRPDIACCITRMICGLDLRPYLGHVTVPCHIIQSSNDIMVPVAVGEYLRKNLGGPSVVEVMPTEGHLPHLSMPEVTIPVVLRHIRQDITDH

**Q.** What does the source list for CC1=C[C@@H](OC(=O)N2CCN(C(=O)COc3ccc(Br)cc3C)CC2)OC1=O [(R)-4a]?
**A.** Kd (ShHTL7 [1]): 1.69 ± 0.04 µM; half-life at 0.5 mM [2]: 6.99 h; IC50 (ShHTL7 [3]; ShHTL7, YLG competition, Supplementary Fig. 27, read-out: IC50, replicate 1): 40.1 µM; IC50 (ShHTL7 [3]; ShHTL7, YLG competition, Supplementary Fig. 27, read-out: IC50, replicate 2): 33.7 µM; IC50 (ShHTL7 [3]; ShHTL7, YLG competition, Supplementary Fig. 27, read-out: IC50, replicate 3): 33.7 µM; IC50 (ShHTL7 [3]; ShHTL7, average of 3 replicates, Supplementary Fig. 27, read-out: IC50, average): 35.8 µM; IC50 (ShHTL7 [3]; YLG as substrate, text and Fig. 2, read-out: IC50, competitive ShHTL7 inhibition (YLG assay)): 35.8 ± 3.69 µM; IC50 (ShHTL7 [3]; wild-type ShHTL7, average of 3, source data of Fig. 2a,b, Supplementary Figs. 8a, 9a, 20b, read-out: IC50, competitive ShHTL7 inhibition (YLG), source data average): 35.8 µM; IC50 ([4]; KAI2C, YLG competition, read-out: IC50, replicate 1): 53.2 µM; IC50 ([4]; KAI2C, YLG competition, read-out: IC50, replicate 2): 56.3 µM; IC50 ([4]; KAI2C, YLG competition, read-out: IC50, replicate 3): 44.7 µM; IC50 ([4]; KAI2C, average of 3 replicates, read-out: IC50, average): 51.4 µM; IC50 ([4]; KAI2d1, YLG competition, read-out: IC50, replicate 1): > 100 µM; IC50 ([4]; KAI2d1, YLG competition, read-out: IC50, replicate 2): > 100 µM; IC50 ([4]; KAI2d1, YLG competition, read-out: IC50, replicate 3): > 100 µM; IC50 ([4]; KAI2d1, average of 3 replicates, read-out: IC50, average): > 100 µM; IC50 ([4]; KAI2d2, YLG competition, read-out: IC50, replicate 1): > 100 µM; IC50 ([4]; KAI2d2, YLG competition, read-out: IC50, replicate 2): > 100 µM; IC50 ([4]; KAI2d2, YLG competition, read-out: IC50, replicate 3): > 100 µM; IC50 ([4]; KAI2d2, average of 3 replicates, read-out: IC50, average): > 100 µM; IC50 ([4]; KAI2d3, YLG competition, read-out: IC50, replicate 1): 84.6 µM; IC50 ([4]; KAI2d3, YLG competition, read-out: IC50, replicate 2): 78.5 µM; IC50 ([4]; KAI2d3, YLG competition, read-out: IC50, replicate 3): 91.5 µM; IC50 ([4]; KAI2d3, average of 3 replicates, read-out: IC50, average): 84.9 µM; IC50 ([4]; KAI2d4, YLG competition, read-out: IC50, replicate 1): > 100 µM; IC50 ([4]; KAI2d4, YLG competition, read-out: IC50, replicate 2): > 100 µM; IC50 ([4]; KAI2d4, YLG competition, read-out: IC50, replicate 3): > 100 µM; IC50 ([4]; KAI2d4, average of 3 replicates, read-out: IC50, average): > 100 µM; IC50 ([5]; ShHTL2, YLG competition, read-out: IC50, replicate 1): 69.7 µM; IC50 ([5]; ShHTL2, YLG competition, read-out: IC50, replicate 2): 64.8 µM; IC50 ([5]; ShHTL2, YLG competition, read-out: IC50, replicate 3): 63.8 µM; IC50 ([5]; ShHTL2, average of 3 replicates, read-out: IC50, average): 66.1 µM; IC50 ([5]; ShHTL3, YLG competition, read-out: IC50, replicate 1): 62.1 µM; IC50 ([5]; ShHTL3, YLG competition, read-out: IC50, replicate 2): 76.7 µM; IC50 ([5]; ShHTL3, YLG competition, read-out: IC50, replicate 3): 63.2 µM; IC50 ([5]; ShHTL3, average of 3 replicates, read-out: IC50, average): 67.3 µM; IC50 ([5]; ShHTL4, YLG competition, read-out: IC50, replicate 1): 22.9 µM; IC50 ([5]; ShHTL4, YLG competition, read-out: IC50, replicate 2): 19.8 µM; IC50 ([5]; ShHTL4, YLG competition, read-out: IC50, replicate 3): 20.3 µM; IC50 ([5]; ShHTL4, average of 3 replicates, read-out: IC50, average): 21 µM; IC50 ([5]; ShHTL5, YLG competition, read-out: IC50, replicate 1): 48.9 µM; IC50 ([5]; ShHTL5, YLG competition, read-out: IC50, replicate 2): 46.9 µM; IC50 ([5]; ShHTL5, YLG competition, read-out: IC50, replicate 3): 35.9 µM; IC50 ([5]; ShHTL5, average of 3 replicates, read-out: IC50, average): 43.9 µM; IC50 ([5]; ShHTL6, YLG competition, read-out: IC50, replicate 1): > 100 µM; IC50 ([5]; ShHTL6, YLG competition, read-out: IC50, replicate 2): > 100 µM; IC50 ([5]; ShHTL6, YLG competition, read-out: IC50, replicate 3): > 100 µM; IC50 ([5]; ShHTL6, average of 3 replicates, read-out: IC50, average): > 100 µM; IC50 ([5]; ShHTL8, YLG competition, read-out: IC50, replicate 1): 58.4 µM; IC50 ([5]; ShHTL8, YLG competition, read-out: IC50, replicate 2): 53.3 µM; IC50 ([5]; ShHTL8, YLG competition, read-out: IC50, replicate 3): 69.9 µM; IC50 ([5]; ShHTL8, average of 3 replicates, read-out: IC50, average): 60.5 µM; IC50 ([5]; ShHTL9, YLG competition, read-out: IC50, replicate 1): 50.2 µM; IC50 ([5]; ShHTL9, YLG competition, read-out: IC50, replicate 2): 43.9 µM; IC50 ([5]; ShHTL9, YLG competition, read-out: IC50, replicate 3): 47.8 µM; IC50 ([5]; ShHTL9, average of 3 replicates, read-out: IC50, average): 47.3 µM; IC50 ([5]; ShHTL10, YLG competition, read-out: IC50, replicate 1): 59.5 µM; IC50 ([5]; ShHTL10, YLG competition, read-out: IC50, replicate 2): 43.4 µM; IC50 ([5]; ShHTL10, YLG competition, read-out: IC50, replicate 3): 54.6 µM; IC50 ([5]; ShHTL10, average of 3 replicates, read-out: IC50, average): 52.5 µM; IC50 ([5]; ShHTL11, YLG competition, read-out: IC50, replicate 1): > 100 µM; IC50 ([5]; ShHTL11, YLG competition, read-out: IC50, replicate 2): > 100 µM; IC50 ([5]; ShHTL11, YLG competition, read-out: IC50, replicate 3): > 100 µM; IC50 ([5]; ShHTL11, average of 3 replicates, read-out: IC50, average): > 100 µM
